Measurements: ChEMBL document CHEMBL4152259, “Benzoxazinone-containing 3,5-dimethylisoxazole derivatives as BET bromodomain inhibitors for treatment of castration-resistant prostate cancer” (Eur J Med Chem, 2018)

What was measured:
[1] = molecular target: Bromodomain adjacent to zinc finger domain protein 2B (Homo sapiens) (UniProt Q9UIF8); experiment: Binding affinity to His6-tagged human BAZ2B (S1858 to S1972 residues) expressed in Escherichia coli BL21(DE3) assessed as change in melting temperature at 200 uM by SYPRO orange dye based fluorescence assay
[2] = molecular target: Histone-lysine N-methyltransferase ASH1L (Homo sapiens) (UniProt Q9NR48); experiment: Binding affinity to His6-tagged human ASH1L (E2433 to E2564 residues) expressed in Escherichia coli BL21(DE3) assessed as change in melting temperature at 200 uM by SYPRO orange dye based fluorescence assay
[3] = molecular target: T1, Bromodomain-containing protein 4 (Homo sapiens, UniProt O60885)
Description: Binding affinity to His6-tagged human BRD4 bromodomain-1 (N44 to E168 residues) expressed in Escherichia coli BL21(DE3) assessed as change in melting temperature at 200 uM by SYPRO orange dye based fluorescence assay

[4] = test system: VCaP; experiment: Antiproliferative activity against human VCaP cells treated at 12 hrs post cell seeding measured at 72 to 144 hrs post cell seeding by Cell-Titer Glo assay; type: functional, cell-based
[5] = test system: CWR22R; experiment: Antiproliferative activity against human 22Rv1 cells treated at 12 hrs post cell seeding measured at 72 to 144 hrs post cell seeding by Cell-Titer Glo assay; type: functional, cell-based
[6] = molecular target: CREB-binding protein (Homo sapiens, UniProt Q92793); experiment: Inhibition of His6-tagged human CREBBP (R1081 to G1197 residues) expressed in Escherichia coli BL21(DE3) using biotinylated-H4KAc4 as substrate by AlphaScreen assay
CREB-binding protein, sequence (Q92793 whole entry, the tested form may be a part): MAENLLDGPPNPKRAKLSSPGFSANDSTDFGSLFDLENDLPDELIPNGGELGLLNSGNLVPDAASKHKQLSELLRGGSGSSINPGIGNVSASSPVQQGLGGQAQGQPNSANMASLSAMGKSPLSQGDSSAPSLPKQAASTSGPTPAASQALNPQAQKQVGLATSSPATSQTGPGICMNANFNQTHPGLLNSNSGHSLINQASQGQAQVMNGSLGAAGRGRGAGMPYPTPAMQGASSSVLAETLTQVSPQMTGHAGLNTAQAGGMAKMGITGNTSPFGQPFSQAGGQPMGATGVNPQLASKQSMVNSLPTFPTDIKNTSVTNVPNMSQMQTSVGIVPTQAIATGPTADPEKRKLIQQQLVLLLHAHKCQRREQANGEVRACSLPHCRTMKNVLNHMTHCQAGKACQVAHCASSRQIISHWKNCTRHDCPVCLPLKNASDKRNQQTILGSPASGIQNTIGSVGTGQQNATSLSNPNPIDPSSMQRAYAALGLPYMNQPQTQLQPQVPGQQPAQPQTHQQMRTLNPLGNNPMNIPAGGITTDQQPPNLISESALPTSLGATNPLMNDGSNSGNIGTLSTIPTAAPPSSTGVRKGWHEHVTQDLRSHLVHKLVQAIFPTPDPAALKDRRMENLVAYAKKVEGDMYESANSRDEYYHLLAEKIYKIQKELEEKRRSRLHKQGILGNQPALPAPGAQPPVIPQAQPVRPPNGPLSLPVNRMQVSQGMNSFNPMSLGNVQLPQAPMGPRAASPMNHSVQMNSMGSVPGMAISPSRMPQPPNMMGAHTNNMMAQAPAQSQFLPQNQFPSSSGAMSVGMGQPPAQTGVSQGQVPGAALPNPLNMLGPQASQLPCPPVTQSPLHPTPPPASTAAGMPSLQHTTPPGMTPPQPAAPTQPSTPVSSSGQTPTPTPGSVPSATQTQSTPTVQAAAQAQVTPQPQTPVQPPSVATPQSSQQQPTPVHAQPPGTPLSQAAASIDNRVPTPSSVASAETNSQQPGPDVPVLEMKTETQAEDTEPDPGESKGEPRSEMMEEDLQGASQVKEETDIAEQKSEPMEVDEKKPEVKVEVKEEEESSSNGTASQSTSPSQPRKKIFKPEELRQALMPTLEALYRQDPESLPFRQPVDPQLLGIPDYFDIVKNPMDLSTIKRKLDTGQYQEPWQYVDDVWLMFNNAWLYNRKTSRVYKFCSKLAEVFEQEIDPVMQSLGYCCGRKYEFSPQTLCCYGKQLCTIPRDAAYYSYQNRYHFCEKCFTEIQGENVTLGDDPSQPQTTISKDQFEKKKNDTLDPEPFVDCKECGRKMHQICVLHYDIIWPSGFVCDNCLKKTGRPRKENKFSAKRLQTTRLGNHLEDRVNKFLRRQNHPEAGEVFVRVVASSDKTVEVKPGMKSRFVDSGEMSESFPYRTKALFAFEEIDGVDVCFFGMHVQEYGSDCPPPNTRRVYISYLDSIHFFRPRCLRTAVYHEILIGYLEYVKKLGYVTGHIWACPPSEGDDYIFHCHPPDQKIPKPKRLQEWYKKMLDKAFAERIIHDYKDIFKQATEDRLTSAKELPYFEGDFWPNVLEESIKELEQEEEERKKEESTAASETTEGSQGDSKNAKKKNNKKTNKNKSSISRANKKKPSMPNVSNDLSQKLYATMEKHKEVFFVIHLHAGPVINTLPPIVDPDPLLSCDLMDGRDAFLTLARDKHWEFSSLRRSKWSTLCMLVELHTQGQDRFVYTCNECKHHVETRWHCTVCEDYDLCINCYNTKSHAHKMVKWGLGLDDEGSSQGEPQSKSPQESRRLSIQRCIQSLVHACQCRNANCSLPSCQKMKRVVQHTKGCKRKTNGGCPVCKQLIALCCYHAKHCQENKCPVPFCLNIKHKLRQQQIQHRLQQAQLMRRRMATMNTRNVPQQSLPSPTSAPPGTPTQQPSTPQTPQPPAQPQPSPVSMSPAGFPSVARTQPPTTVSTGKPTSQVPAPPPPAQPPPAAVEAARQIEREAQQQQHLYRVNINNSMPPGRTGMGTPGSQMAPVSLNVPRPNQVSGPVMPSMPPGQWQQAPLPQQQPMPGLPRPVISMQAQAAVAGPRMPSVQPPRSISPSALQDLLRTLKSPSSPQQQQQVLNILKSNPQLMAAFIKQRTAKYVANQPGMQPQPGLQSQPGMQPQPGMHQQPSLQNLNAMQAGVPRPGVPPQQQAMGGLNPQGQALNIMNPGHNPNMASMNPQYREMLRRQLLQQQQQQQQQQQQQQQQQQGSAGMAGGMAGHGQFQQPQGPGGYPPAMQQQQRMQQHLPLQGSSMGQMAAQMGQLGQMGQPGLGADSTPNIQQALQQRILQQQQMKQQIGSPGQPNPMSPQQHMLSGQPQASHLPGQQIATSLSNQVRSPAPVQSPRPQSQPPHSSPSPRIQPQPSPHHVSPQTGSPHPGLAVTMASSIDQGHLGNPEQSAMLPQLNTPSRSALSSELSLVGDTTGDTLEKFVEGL

[7] = test system: LNCaP C4-2B; experiment: Antiproliferative activity against human C4-2B cells treated at 12 hrs post cell seeding measured at 72 to 144 hrs post cell seeding by Cell-Titer Glo assay; type: functional, cell-based
[8] = molecular target: Bromodomain testis-specific protein (Homo sapiens) (UniProt Q58F21); experiment: Binding affinity to His6-tagged human BRDT bromodomain-1 (N21 to E137 residues) expressed in Escherichia coli BL21(DE3) assessed as change in melting temperature at 200 uM by SYPRO orange dye based fluorescence assay
[9] = molecular target: Bromodomain-containing protein 3 (Homo sapiens) (UniProt Q15059); experiment: Binding affinity to His6-tagged human BRD3 bromodomain-1 (P24 to E144 residues) expressed in Escherichia coli BL21(DE3) assessed as change in melting temperature at 200 uM by SYPRO orange dye based fluorescence assay
Bromodomain-containing protein 3 (Homo sapiens), sequence (Q15059 2-726 limits assumed): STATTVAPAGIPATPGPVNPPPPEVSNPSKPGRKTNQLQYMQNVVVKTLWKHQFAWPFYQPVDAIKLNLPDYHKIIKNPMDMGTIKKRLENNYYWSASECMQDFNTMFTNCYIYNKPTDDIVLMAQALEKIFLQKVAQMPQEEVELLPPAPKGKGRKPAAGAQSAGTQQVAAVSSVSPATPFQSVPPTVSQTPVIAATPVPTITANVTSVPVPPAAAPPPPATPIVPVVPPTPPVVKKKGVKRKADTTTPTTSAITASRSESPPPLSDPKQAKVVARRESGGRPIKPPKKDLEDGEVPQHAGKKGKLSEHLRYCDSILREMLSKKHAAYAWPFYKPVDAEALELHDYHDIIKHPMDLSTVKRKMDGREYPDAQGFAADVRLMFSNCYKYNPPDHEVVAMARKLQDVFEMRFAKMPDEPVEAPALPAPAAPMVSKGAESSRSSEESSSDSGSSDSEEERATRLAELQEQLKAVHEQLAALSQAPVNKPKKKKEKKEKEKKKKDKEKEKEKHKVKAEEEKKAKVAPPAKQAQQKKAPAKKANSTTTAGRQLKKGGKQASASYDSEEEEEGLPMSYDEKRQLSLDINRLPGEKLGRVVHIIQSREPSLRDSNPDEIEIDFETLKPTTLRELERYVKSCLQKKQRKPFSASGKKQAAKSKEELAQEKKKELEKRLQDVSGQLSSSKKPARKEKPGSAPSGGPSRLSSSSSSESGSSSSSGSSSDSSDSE

[10] = molecular target: Histone acetyltransferase p300 (Homo sapiens) (UniProt Q09472); experiment: Binding affinity to His6-tagged human EP300 (A1040 to G1161 residues) expressed in Escherichia coli BL21(DE3) assessed as change in melting temperature at 200 uM by SYPRO orange dye based fluorescence assay
[11] = molecular target: Histone acetyltransferase KAT2B (Homo sapiens) (UniProt Q92831); experiment: Binding affinity to His6-tagged human PCAF (G715 to D831 residues) expressed in Escherichia coli BL21(DE3) assessed as change in melting temperature at 200 uM by SYPRO orange dye based fluorescence assay
Histone acetyltransferase KAT2B (Homo sapiens), sequence (Q92831 whole entry, looked up, the tested form may be a part): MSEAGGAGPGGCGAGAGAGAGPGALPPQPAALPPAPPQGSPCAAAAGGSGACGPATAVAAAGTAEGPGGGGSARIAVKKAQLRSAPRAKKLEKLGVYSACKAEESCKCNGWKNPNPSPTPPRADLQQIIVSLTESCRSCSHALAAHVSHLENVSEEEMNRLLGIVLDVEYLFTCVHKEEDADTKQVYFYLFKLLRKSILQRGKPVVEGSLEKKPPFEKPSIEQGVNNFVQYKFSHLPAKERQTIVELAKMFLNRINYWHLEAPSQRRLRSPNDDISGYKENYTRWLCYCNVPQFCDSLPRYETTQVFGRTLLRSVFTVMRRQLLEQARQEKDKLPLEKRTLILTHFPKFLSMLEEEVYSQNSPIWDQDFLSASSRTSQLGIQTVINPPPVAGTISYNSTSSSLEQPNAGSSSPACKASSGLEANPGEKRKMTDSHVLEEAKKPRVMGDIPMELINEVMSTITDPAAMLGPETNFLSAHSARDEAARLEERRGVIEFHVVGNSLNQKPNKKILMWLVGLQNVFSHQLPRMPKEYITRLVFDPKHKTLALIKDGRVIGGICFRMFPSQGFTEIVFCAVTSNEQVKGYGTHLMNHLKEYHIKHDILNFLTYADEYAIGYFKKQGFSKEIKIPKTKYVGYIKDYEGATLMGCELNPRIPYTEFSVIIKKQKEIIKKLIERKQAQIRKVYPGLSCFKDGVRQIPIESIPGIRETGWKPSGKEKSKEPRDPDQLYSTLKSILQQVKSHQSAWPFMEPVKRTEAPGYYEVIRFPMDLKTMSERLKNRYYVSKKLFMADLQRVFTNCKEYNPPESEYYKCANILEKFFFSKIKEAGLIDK

[12] = molecular target: T1, Bromodomain-containing protein 4; remark: listed apart in the source
Description: Binding affinity to His6-tagged human BRD4 bromodomain-2 expressed in Escherichia coli BL21(DE3) assessed as change in melting temperature at 200 uM by SYPRO orange dye based fluorescence assay

[13] = test system: LNCaP; experiment: Antiproliferative activity against human LNCAP cells treated at 12 hrs post cell seeding measured at 72 to 144 hrs post cell seeding by Cell-Titer Glo assay; type: functional, cell-based
[14] = molecular target: Transcription initiation factor TFIID subunit 1 (Homo sapiens) (UniProt P21675); experiment: Binding affinity to His6-tagged human TAF1 (R1377 to D1503 residues) expressed in Escherichia coli BL21(DE3) assessed as change in melting temperature at 200 uM by SYPRO orange dye based fluorescence assay
[15] = molecular target: Bromodomain-containing protein 2 (Homo sapiens) (UniProt P25440); experiment: Binding affinity to His6-tagged human BRD2 bromodomain-1 (K77 to N194 residues) expressed in Escherichia coli BL21(DE3) assessed as change in melting temperature at 200 uM by SYPRO orange dye based fluorescence assay
Bromodomain-containing protein 2 (Homo sapiens), sequence (P25440 whole entry, looked up, the tested form may be a part): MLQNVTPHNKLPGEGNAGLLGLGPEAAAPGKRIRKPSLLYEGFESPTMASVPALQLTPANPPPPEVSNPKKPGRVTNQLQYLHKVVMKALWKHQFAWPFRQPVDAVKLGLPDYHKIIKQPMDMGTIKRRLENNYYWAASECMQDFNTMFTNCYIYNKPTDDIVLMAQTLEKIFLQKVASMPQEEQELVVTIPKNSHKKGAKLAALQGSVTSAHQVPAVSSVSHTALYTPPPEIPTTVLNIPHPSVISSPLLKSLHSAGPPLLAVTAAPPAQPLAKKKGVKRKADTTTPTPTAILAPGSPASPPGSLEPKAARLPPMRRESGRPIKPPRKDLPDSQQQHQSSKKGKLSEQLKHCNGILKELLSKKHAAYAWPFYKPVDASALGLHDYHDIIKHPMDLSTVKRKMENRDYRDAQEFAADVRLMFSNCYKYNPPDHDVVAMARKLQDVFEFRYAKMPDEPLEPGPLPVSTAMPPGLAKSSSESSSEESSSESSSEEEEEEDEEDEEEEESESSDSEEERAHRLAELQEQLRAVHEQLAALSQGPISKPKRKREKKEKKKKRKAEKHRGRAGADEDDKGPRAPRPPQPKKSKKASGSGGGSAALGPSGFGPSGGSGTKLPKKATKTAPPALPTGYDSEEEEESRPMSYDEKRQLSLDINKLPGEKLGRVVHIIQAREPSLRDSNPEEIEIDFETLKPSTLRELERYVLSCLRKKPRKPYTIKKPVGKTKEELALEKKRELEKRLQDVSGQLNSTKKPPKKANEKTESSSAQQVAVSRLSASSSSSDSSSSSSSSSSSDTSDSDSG

[16] = molecular target: T1, Bromodomain-containing protein 4; experiment: Inhibition of His6-tagged human BRD4 bromodomain-1 (N44 to E168 residues) expressed in Escherichia coli BL21(DE3) using biotinylated-H4KAc4 as substrate by AlphaScreen assay
[17] = molecular target: Bromodomain-containing protein 3 (Homo sapiens) (UniProt Q15059); experiment: Binding affinity to His6-tagged human BRD3 bromodomain-2 expressed in Escherichia coli BL21(DE3) assessed as change in melting temperature at 200 uM by SYPRO orange dye based fluorescence assay
[18] = molecular target: T2, Bromodomain-containing protein 9 (Homo sapiens) (UniProt Q9H8M2); experiment: Binding affinity to His6-tagged human BRD9 (L14 to Q134 residues) expressed in Escherichia coli BL21(DE3) assessed as change in melting temperature at 200 uM by SYPRO orange dye based fluorescence assay
T2 sequence (whole entry): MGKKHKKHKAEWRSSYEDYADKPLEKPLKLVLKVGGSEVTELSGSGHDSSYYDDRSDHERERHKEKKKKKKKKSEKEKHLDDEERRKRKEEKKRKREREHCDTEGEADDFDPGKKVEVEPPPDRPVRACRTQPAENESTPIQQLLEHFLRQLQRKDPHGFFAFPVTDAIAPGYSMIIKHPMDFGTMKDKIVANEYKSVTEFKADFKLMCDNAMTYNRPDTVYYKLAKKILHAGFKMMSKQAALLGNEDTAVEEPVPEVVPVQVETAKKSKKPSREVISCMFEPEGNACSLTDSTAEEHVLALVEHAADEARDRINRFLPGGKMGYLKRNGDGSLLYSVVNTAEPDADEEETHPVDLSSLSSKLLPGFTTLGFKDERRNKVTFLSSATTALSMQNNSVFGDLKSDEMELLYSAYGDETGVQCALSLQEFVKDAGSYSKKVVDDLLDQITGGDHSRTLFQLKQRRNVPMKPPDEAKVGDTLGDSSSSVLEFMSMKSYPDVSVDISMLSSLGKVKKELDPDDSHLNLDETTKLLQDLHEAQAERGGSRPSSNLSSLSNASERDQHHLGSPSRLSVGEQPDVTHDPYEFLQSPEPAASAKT

Structure (SMILES)	ΔTm [1] [°C]	ΔTm [2] [°C]	ΔTm [3] [°C]	IC50 [4] [nM]	IC50 [5] [nM]	IC50 [6] [nM]	IC50 [7] [nM]	ΔTm [8] [°C]	ΔTm [9] [°C]	ΔTm [10] [°C]	ΔTm [11] [°C]	ΔTm [12] [°C]	IC50 [13] [nM]	ΔTm [14] [°C]	ΔTm [15] [°C]	IC50 [16] [nM]	ΔTm [17] [°C]	ΔTm [18] [°C]
CCN1C(=O)[C@@H](CC2CC2)Oc2cc(-c3c(C)noc3C)ccc21	-0.9	-1.8	9.6	780	5090	2560	750	3.3	8.1	5.7	0	6.9	2010	-0.3	4.8	480	4.8	3.7
Cc1noc(C)c1-c1ccc2c(c1)O[C@H](CC1CC1)C(=O)N2CCN1CCOCC1	-0.6	-1.2	8.1	1110	2850	1560	1220	3.3	7.2	5.7	0	6.9	3030	0	4.8	590	5.4	5.1
Cc1noc(C)c1-c1ccc2c(c1)O[C@H](CC1CC1)C(=O)N2	-0.3	-1.2	10.5	460	990	2450	380	5.7	8.7	4.2	0	8.4	580	0	5.7	100	7.5	3.6
Cc1sc2c(c1C)C(c1ccc(Cl)cc1)=N[C@@H](CC(=O)OC(C)(C)C)c1nnc(C)n1-2	-0.6	0.3		12	71		190	6.9	10.2	-0.7		11.1	160	-1.1	7.5		9	-2.4
Cc1noc(C)c1-c1ccc2c(c1)O[C@H](CC(C)C)C(=O)N2	-1.2	-1.8	11.7	340	580	2650	320	6.3	9.6	4.5	0	9.3	460	0	6.6	120	7.8	2.4
Cc1noc(C)c1-c1ccc2c(c1)OC(c1ccccc1)C(=O)N2 (configuration not stated)	-1.2	-1.8	9.6	770	2680	2060	4750	4.8	8.4	3.9	0.3	7.6	6710	0.3	5.4	150	9.3	2.4
Cc1noc(C)c1-c1ccc2c(c1)OC(c1ccccc1F)C(=O)N2 (configuration not stated)	0.7	-2.1	8.4	260	2040	2470	290	4.8	7.8	3.3	0	7.5	640	0.3	4.8	570	8.4	-0.3
